Experimental data as given in BindingDB's records for doi:10.1021/acs.biochem.6b01020 (University of Delaware, 2017).
Square brackets hold non-standard residues; d marks the D form. Peptide text beside a SMILES is read from it. * marks the point of attachment. C(CF3)3 = FC(F)(F)C(C(F)(F)F)(C(F)(F)F)*; Hyp = O=C(O)[C@@H]1C[C@@H](O)CN1; hSer = N[C@@H](CCO)C(=O)O

These molecules were tested against T1, Estradiol-bound Estrogen receptor [255-595] (Homo sapiens, UniProt P03372) (assay: Fluorescence Polarization Assay). Conditions: pH 7.4; 25 °C.
T1 construct: 255-595
T1 sequence (P03372 whole entry): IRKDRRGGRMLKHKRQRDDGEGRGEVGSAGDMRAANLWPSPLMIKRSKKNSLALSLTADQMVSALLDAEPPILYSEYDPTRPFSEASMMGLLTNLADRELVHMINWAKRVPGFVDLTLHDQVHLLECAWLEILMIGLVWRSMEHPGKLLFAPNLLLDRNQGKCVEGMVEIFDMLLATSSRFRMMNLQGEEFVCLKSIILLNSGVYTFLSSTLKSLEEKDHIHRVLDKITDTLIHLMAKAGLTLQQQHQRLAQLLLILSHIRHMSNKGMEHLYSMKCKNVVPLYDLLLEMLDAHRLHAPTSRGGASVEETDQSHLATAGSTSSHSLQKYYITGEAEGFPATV
Procedure: Peptide concentrations were determined by the absorbance at 492 nm, using a fluorescein extinction coefficient of 83000. Fluorescence polarization assays were conducted in 96-well round-bottom black opaque plates (Costar) using 2-fold serial dilutions of the ERα LBD, to final protein concentrations from 10 to 0.0098 μM, in PBS containing 0.1 mM DTT, 20 μM 17β-estradiol, 0.04 mg/mL BSA, and 100 nM fluorescein-labeled peptide. Solutions were incubated in the dark for 30 min at room temperature before being read on a PerkinElmer Fusion plate reader using a 485 nm fluorescein excitation filter and a 535 nm emission filter with a polarizer.

Kd [µM] | Molecule
43 | CC[C@H](C)[C@H](NC(=O)[C@H](CCCCN)NC(=O)[C@H](Cc1cnc[nH]1)NC(=O)[C@H](CCCNC(=N)N)NC(=O)[C@H](CCC(=O)O)NC(=O)[C@@H](NC(=O)[C@H](CC(C)C)NC(=O)[C@@H](N)CS)[C@@H](C)O)C(=O)N[C@H](CCOC(C(F)(F)F)(C(F)(F)F)C(F)(F)F)C(=O)N[C@@H](Cc1cnc[nH]1)C(=O)N[C@@H](CCCNC(=N)N)C(=O)N[C@@H](CC(C)C)C(=O)N[C@@H](CC(C)C)C(=O)N[C@@H](CCC(N)=O)C(=O)N[C@@H](CCC(=O)O)C(=O)O
2.2 | CC[C@H](C)[C@H](NC(=O)[C@H](CCCCN)NC(=O)[C@H](Cc1cnc[nH]1)NC(=O)[C@H](CCCNC(=N)N)NC(=O)[C@H](CCC(=O)O)NC(=O)[C@@H](NC(=O)[C@H](CC(C)C)NC(=O)[C@@H](N)CS)[C@@H](C)O)C(=O)N[C@@H](CC(C)C)C(=O)N[C@@H](Cc1cnc[nH]1)C(=O)N[C@@H](CCCNC(=N)N)C(=O)N[C@@H](CCOC(C(F)(F)F)(C(F)(F)F)C(F)(F)F)C(=O)N[C@@H](CC(C)C)C(=O)N[C@@H](CCC(N)=O)C(=O)N[C@@H](CCC(=O)O)C(=O)O (H-CLTERHKILHR[hSer](C(CF3)3)LQE-OH)
> 150 | CC[C@H](C)[C@H](NC(=O)[C@H](CCCCN)NC(=O)[C@H](Cc1cnc[nH]1)NC(=O)[C@H](CCCNC(=N)N)NC(=O)[C@H](CCC(=O)O)NC(=O)[C@@H](NC(=O)[C@H](CC(C)C)NC(=O)[C@@H](N)CS)[C@@H](C)O)C(=O)N1C[C@H](OC(C(F)(F)F)(C(F)(F)F)C(F)(F)F)C[C@H]1C(=O)N[C@@H](Cc1cnc[nH]1)C(=O)N[C@@H](CCCNC(=N)N)C(=O)N[C@@H](CC(C)C)C(=O)N[C@@H](CC(C)C)C(=O)N[C@@H](CCC(N)=O)C(=O)N[C@@H](CCC(=O)O)C(=O)O (H-CLTERHKI[Hyp](C(CF3)3)HRLLQE-OH)
7.1 | CC(C)C[C@H](NC(=O)[C@H](CC(C)C)NC(=O)[C@H](CCCNC(=N)N)NC(=O)[C@H](Cc1cnc[nH]1)NC(=O)[C@H](CC(C)C)NC(=O)[C@H](CCOC(C(F)(F)F)(C(F)(F)F)C(F)(F)F)NC(=O)[C@H](CCCCN)NC(=O)[C@H](Cc1cnc[nH]1)NC(=O)[C@H](CCCNC(=N)N)NC(=O)[C@H](CCC(=O)O)NC(=O)[C@@H](NC(=O)[C@H](CC(C)C)NC(=O)[C@@H](N)CS)[C@@H](C)O)C(=O)N[C@@H](CCC(N)=O)C(=O)N[C@@H](CCC(=O)O)C(=O)O [CLTERHK(Hse(C4F9))LHRLLQE] (H-CLTERHK[hSer](C(CF3)3)LHRLLQE-OH)
1 | H-CLTERHKILHRLLQE-OH
